Holding throughout (assay): biochemical
The target of one assay is T1, MMP-1 (Homo sapiens, UniProt P03956).
T1 construct: made in house; host or cells: transfected HT-1080 cells (provided by Dr. Harold Welgus, Washington University)
T1 sequence (P03956 100-469): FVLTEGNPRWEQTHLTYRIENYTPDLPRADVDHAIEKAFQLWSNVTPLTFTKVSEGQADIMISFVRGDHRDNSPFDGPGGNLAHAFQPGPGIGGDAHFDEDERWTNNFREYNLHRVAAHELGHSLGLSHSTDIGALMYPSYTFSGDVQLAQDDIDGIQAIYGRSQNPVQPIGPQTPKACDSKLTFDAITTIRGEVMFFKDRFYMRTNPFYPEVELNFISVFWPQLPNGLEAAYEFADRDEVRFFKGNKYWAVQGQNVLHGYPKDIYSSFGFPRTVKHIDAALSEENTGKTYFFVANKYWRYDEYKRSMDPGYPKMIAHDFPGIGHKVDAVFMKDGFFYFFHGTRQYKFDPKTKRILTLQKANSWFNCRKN
The settings on record: read-out: MMP-1 IC50. The gist of the method:
(§1)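 Assay buffer 100 mM Tris-HCl, 100 mM NaCl, 10 mM CaCl2, pH 7.5. Activated MMP + inhibitor, 5 min RT; then methoxycoumarin peptide substrate, 4 μM final. Readout fluorescence; IC50 calculated.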

Another assay has as its target T2, MMP-13 (Homo sapiens, UniProt P45452).
T2 construct: made in house; host or cells: baculovirus / insect cells
The note with it: read-out: MMP-13 IC50. The gist of the method:
as §1

In another assay the target is T3, MMP-2 (Homo sapiens, UniProt P08253).
T3 construct: made in house; provided by Dr. Gregory Goldberg, Washington University
T3 sequence (P08253 110-660): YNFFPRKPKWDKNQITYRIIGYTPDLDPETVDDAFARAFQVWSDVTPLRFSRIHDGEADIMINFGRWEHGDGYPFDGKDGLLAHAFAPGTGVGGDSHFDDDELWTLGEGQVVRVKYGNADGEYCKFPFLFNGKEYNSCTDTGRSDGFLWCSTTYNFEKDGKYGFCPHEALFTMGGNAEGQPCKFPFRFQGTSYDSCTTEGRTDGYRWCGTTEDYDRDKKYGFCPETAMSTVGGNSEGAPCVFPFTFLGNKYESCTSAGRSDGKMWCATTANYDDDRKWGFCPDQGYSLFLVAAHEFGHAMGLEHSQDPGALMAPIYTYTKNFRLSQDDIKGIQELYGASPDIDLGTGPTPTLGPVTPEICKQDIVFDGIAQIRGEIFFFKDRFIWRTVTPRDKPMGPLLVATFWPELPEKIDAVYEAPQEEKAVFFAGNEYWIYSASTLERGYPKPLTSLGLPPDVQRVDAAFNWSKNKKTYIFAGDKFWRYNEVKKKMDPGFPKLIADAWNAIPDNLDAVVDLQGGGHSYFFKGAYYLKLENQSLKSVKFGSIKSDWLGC
The gist of the method:
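APMA- or trypsin-activated enzymes were preincubated with inhibitor for 5 min at room temperature, then the fluorogenic substrate MCA-Pro-Leu-Gly-Leu-Dpa-Ala-Arg-NH2 was added to a final 4 μM.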

Where [1] appears, read: recombinant human MMP-1, MCA peptide substrate 4 μM, pH 7.5, room temperature.
Where [2] appears, read: recombinant human MMP-13, MCA peptide substrate 4 μM, pH 7.5, room temperature.
Setting [3] is: recombinant human MMP-2, MCA peptide substrate 4 μM, pH 7.5, room temperature, read-out: MMP-2 IC50.

Where two headings read alike, the source gives them in different places.

As to `O=C(NO)C1(S(=O)(=O)c2ccc(N3CCCC3)cc2)CCOCC1` [Example 81], the IC50 (as a rule, the midpoint of a concentration-inhibition curve) on MMP-1 (setting [1]) was over 10000 nM; on MMP-13 (setting [2]), 60 nM; at MMP-2 (setting [3]), 158 nM.
`O=C(NO)C1(S(=O)(=O)c2ccc(N3CCN(c4ccccc4F)CC3)cc2)CCOCC1` [Example 83]: the IC50 at MMP-1 (setting [1]) is 3100 nM; at MMP-13 (setting [2]) it was 2.7 nM; against MMP-2 (MMP-2 IC50 (nM)), 21.1 nM.
For the compound `O=C(NO)C1(S(=O)(=O)c2ccc(N3CCN(c4ccc(F)cc4F)CC3)cc2)CCOCC1` [Example 87], the half-inhibitory concentration (IC50) was over 10000 nM at MMP-1 (setting [1]), 4 nM on MMP-13 (setting [2]) and 15.5 nM on MMP-2 (setting [3]).
Taken in the same sequence, the figures for `O=C(NO)C1(S(=O)(=O)c2ccc(N3CCN(c4ccccc4Cl)CC3)cc2)CCOCC1` [Example 88] were over 10000 nM, 9 nM and 40 nM.
Taken in the same sequence, the figures for `O=C(c1ccccc1)N1CCC(C(=O)NO)(S(=O)(=O)c2ccc(Oc3ccc(OC(F)(F)F)cc3)cc2)CC1` [Example 91] were over 10000 nM, 0.3 nM and under 0.1 nM.
Taken in the same sequence, the figures for `O=C(c1ccccc1)N1CCC(C(=O)NO)(S(=O)(=O)c2ccc(Oc3ccc(C(F)(F)F)cc3)cc2)CC1` [Example 92] were over 10000 nM, 0.8 nM and 0.1 nM.
As to `O=C(c1ccc(OC(F)(F)F)cc1)N1CCC(C(=O)NO)(S(=O)(=O)c2ccc(Oc3ccc(C(F)(F)F)cc3)cc2)CC1` [Example 140], the IC50 on MMP-1 (setting [1]) was over 10000 nM; at MMP-13 (setting [2]) it was 11.4 nM; at MMP-2 (setting [3]) it was 0.8 nM.
Taken in the same sequence, the figures for `O=C(Nc1ccc(C(F)(F)F)cc1)N1CCC(C(=O)NO)(S(=O)(=O)c2ccc(Oc3ccc(C(F)(F)F)cc3)cc2)CC1` [Example 141] were over 10000 nM, 20 nM and 9 nM.
Taken in the same sequence, the figures for `O=C(NO)C1(S(=O)(=O)c2ccc(Oc3ccc(C(F)(F)F)cc3)cc2)CCN(S(=O)(=O)c2ccc(C(F)(F)F)cc2)CC1` [Example 143] were over 10000 nM, 22 nM and 14.5 nM.
On to `COc1ccc(Oc2ccc(S(=O)(=O)C3(C(=O)NO)CCSCC3)cc2)cc1` [Example 146], for which the figures for the IC50 on MMP-1, on MMP-13 and on MMP-2 (read-out: MMP-2 IC50) were 3000 nM, 0.2 nM and 0.3 nM, respectively.
Turning to `O=C(NO)C1(S(=O)(=O)c2ccc(Oc3ccc(OC(F)(F)F)cc3)cc2)CCSCC1` [Example 147], the figures for the concentration for half-maximal inhibition (IC50) on MMP-1 (setting [1]), at MMP-13 (setting [2]) and on MMP-2 (setting [3]) were 7700 nM, 0.4 nM and 0.2 nM, respectively.
For `CC(C)c1ccc(Oc2ccc(S(=O)(=O)C3(C(=O)NO)CCSCC3)cc2)cc1` [Example 148], the IC50 at MMP-1 (setting [1]) was over 10000 nM; on MMP-13 (setting [2]), 2.5 nM; at MMP-2 (setting [3]), 3.7 nM.
Taken in the same sequence, the figures for `O=C(NO)C1(S(=O)(=O)c2ccc(Oc3cccnc3)cc2)CCSCC1` [Example 149] were 480 nM, 15.8 nM and 13.8 nM.
Taken in the same sequence, the figures for `O=C(NO)C1(S(=O)(=O)c2ccc(Oc3ccncc3)cc2)CCSCC1` [Example 151] were over 10000 nM, 270 nM and 290 nM.
Regarding `O=C(c1ccc(F)cc1)C1CCN(c2ccc(S(=O)(=O)C3(C(=O)NO)CCSCC3)cc2)CC1` [Example 152], the IC50 is over 10000 nM at MMP-1, 2 nM on MMP-13 and 59 nM at MMP-2 (read-out: MMP-2 IC50).
Consider `COc1ccccc1C1CCN(c2ccc(S(=O)(=O)C3(C(=O)NO)CCSCC3)cc2)CC1` [Example 153], for which the IC50 on MMP-1 is over 10000 nM; at MMP-13, 50 nM; on MMP-2 (read-out: MMP-2 IC50), 5000 nM.
Take `CN(CC1CC1)C(=O)C1CCN(c2ccc(S(=O)(=O)C3(C(=O)NO)CCSCC3)cc2)CC1` [Example 154]: the IC50 was over 10000 nM at MMP-1 (setting [1]), 18 nM on MMP-13 (setting [2]) and 3700 nM at MMP-2 (setting [3]).
Taken in the same sequence, the figures for `O=C(NO)C1(S(=O)(=O)c2ccc(N3CCCC3)cc2)CCSCC1` [Example 155] were over 10000 nM, 130 nM and 240 nM.
Consider `COc1ccc(Oc2ccc(S(=O)(=O)C3(C(=O)NO)CCS(=O)(=O)CC3)cc2)cc1` [Example 156], for which the IC50 on MMP-1 was over 10000 nM; at MMP-13, 2.2 nM; on MMP-2 (read-out: MMP-2 IC50) it was 0.45 nM.
On to `O=C(NO)C1(S(=O)(=O)c2ccc(Oc3ccc(OC(F)(F)F)cc3)cc2)CCS(=O)(=O)CC1` [Example 157], for which the IC50 at MMP-1 (setting [1]) is over 10000 nM; at MMP-13 (setting [2]), 0.5 nM; at MMP-2 (setting [3]) it was 0.2 nM.
As to `O=C(NO)C1(S(=O)(=O)c2ccc(Oc3ccncc3)cc2)CCS(=O)(=O)CC1` [Example 160], the results for the 50% inhibitory concentration (IC50) on MMP-1 (setting [1]), on MMP-13 (setting [2]) and at MMP-2 (setting [3]) were over 10000 nM, 300 nM and 90 nM, respectively.
For `O=C(c1ccc(F)cc1)C1CCN(c2ccc(S(=O)(=O)C3(C(=O)NO)CCS(=O)(=O)CC3)cc2)CC1` [Example 161], the IC50 was over 10000 nM on MMP-1, 32.6 nM on MMP-13 and 900 nM on MMP-2 (read-out: MMP-2 IC50).
The corresponding values for `CC1CC(C)CN(C(=O)C2CCN(c3ccc(S(=O)(=O)C4(C(=O)NO)CCSCC4)cc3)CC2)C1` (stereo not drawn) [Example 162] are over 10000 nM, 27.8 nM and 7000 nM.
As for `O=C(NO)C1(S(=O)(=O)c2ccc(N3CCC(OCc4ccc(F)cc4)CC3)cc2)CCOCC1` [Example 164], the IC50 is over 10000 nM at MMP-1 (setting [1]), 3.5 nM at MMP-13 (setting [2]) and 440 nM at MMP-2 (setting [3]).
Taken in the same sequence, the figures for `O=C(NO)C1(S(=O)(=O)c2ccc(N3CCC(OCc4ccccc4)CC3)cc2)CCOCC1` [Example 165] were over 10000 nM, 3 nM and 48.5 nM.
The corresponding values for `CCOC1CCN(c2ccc(S(=O)(=O)C3(C(=O)NO)CCOCC3)cc2)CC1` [Example 166] are over 10000 nM, 32.7 nM and 240 nM.
Taken in the same sequence, the figures for `CCCOC1CCN(c2ccc(S(=O)(=O)C3(C(=O)NO)CCOCC3)cc2)CC1` [Example 168] were over 10000 nM, 50 nM and 285 nM.
On to `O=C(NO)C1(S(=O)(=O)c2ccc(N3CCC(OCc4ccc(Cl)cc4)CC3)cc2)CCOCC1` [Example 170], for which the IC50 is over 10000 nM on MMP-1 (setting [1]), 2.4 nM on MMP-13 (setting [2]) and 200 nM on MMP-2 (setting [3]).
The corresponding values for `Cc1ccc(COC2CCN(c3ccc(S(=O)(=O)C4(C(=O)NO)CCOCC4)cc3)CC2)cc1` [Example 172] are over 10000 nM, 3.8 nM and 160 nM.
The corresponding values for `O=C(NO)C1(S(=O)(=O)c2ccc(N3CCC(OCc4cccc(OC(F)(F)F)c4)CC3)cc2)CCOCC1` [Example 173] are 3400 nM, 6.7 nM and 330 nM.
The corresponding values for `O=C(NO)C1(S(=O)(=O)c2ccc(N3CCC(OCc4ccccc4C(F)(F)F)CC3)cc2)CCOCC1` [Example 174] are over 10000 nM, 23.5 nM and 800 nM.
With `O=C(NO)C1(S(=O)(=O)c2ccc(N3CCC(OCc4ccc(OC(F)(F)F)cc4)CC3)cc2)CCOCC1` [Example 175], the IC50 was over 10000 nM at MMP-1 (setting [1]), 2.5 nM on MMP-13 (setting [2]) and 290 nM on MMP-2 (setting [3]).
In the case of `O=C(NO)C1(S(=O)(=O)c2ccc(N3CCC(OCc4ccc(Cl)c(Cl)c4)CC3)cc2)CCOCC1` [Example 176], the IC50 on MMP-1 (setting [1]) was over 10000 nM; at MMP-13 (setting [2]), 4 nM; at MMP-2 (setting [3]) it was 250 nM.

(Values after US6750228B1, “Aromatic sulfone hydroxamic acid metalloprotease inhibitor” (priority 1997, dated 2004).)
